Results as given in patent US12502379B2, “Ponesimod for avoiding worsening of fatigue-related symptoms in multiple sclerosis patients” (Vanda Pharmaceuticals Inc., priority 2019, dated 2025).

What was measured:
[1] = ALT increase relative to ULN; assay type: in vivo, human; conditions: ponesimod 20 mg arm, teriflunomide 14 mg arm
[2] = 12-lead ECG heart rate on Day 1, change from pre-dose; assay type: in vivo, human
Experimental: As per up-titration regimen, the dose of ponesimod on Day 1 is 2 mg.

In the case of `CCC/N=C1\S/C(=C\c2ccc(OC[C@H](O)CO)c(Cl)c2)C(=O)N1c1ccccc1C` [Ponesimod, (R)-5-[3-chloro-4-(2,3-dihydroxy-propoxy)-benz[Z]ylidene]-2-([Z]-propylimino)-3-o-tolyl-thiazolidin-4-one], the “Proportion of subjects who experienced ALT increase >3×ULN” value [1] is reported as 17.3%, the “Proportion of subjects who experienced ALT increase >8×ULN” value [1] is reported as 0.7% and the “Mean heart rate reduction compared to pre-dose (maximum)” value ([2]; Day 1, 2-hours post dose, ponesimod arm dose on Day 1 is 2 mg) is reported as −8.7 bpm. For the same compound, the “ECG HR effect: time of nadir / maximum mean heart rate reduction post-dose” value ([2]; Day 1, first dose (ponesimod 2 mg per up-titration)) was 2 h and the “Subjects with asymptomatic post-dose HR≤40 bpm” value ([2]; Day 1, all had pre-treatment HR<55 bpm) was 3.
